Measurements: ChEMBL document CHEMBL6114999, “Natural pyrrolo[1,2-a]quinazolinone derivatives: Design, synthesis, characterization, and bio-evaluation as novel antiviral agents” (Eur J Med Chem, 2025)
Activity calls are given as the source filed them. The rule behind the calls is not given here.

How the values were obtained:
Enterovirus [1] = test: Antiviral activity against EV71 infected in human RD cells assessed as protection from virus-induced cytopathogenicity incubated for 48 hrs by MTT assay; assay type: functional, organism-based; settings: Enterovirus, 71, RD
[2] = Cytotoxicity against human RD cells incubated for 48 hrs by MTT assay; assay type: toxicity, cell-based
[3] = Selectivity index, ratio of CC50 for cytotoxicity against human RD cells to EC50 for antiviral activity against EV71 infected in human RD cells; assay type: toxicity, cell-based; settings: read-out: Ratio CC50/EC50
Coxsackievirus B3 [4] = test: Antiviral activity against CVB3 infected in HEp-2 cells assessed as protection from virus-induced cytopathogenicity incubated for 48 hrs by MTT assay; assay type: functional, organism-based; settings: Enterovirus B, HEp-2, 48 h
[5] = Cytotoxicity against human HEp-2 cells incubated for 48 hrs by MTT assay; assay type: toxicity, cell-based
[6] = Selectivity index, ratio of CC50 for cytotoxicity against HEp-2 cells to EC50 for antiviral activity against CVB3 infected in HEp-2 cells; assay type: toxicity, cell-based; settings: human, read-out: Ratio CC50/EC50
Coxsackievirus B3 [7] = test: Antiviral activity against CVB3 infected in HEp-2 cells assessed as inhibition of virus-induced cell death at 100 uM incubated for 48 hrs by MTT assay relative to control; assay type: functional; settings: for inhibition at 100 µM: Enterovirus B, HEp-2, 48 h
Enterovirus [8] = test: Antiviral activity against EV71 infected in human RD cells assessed as inhibition of virus-induced cell death at 100 uM incubated for 48 hrs by MTT assay relative to control; assay type: functional, 71; settings: for inhibition at 100 µM: Enterovirus, 71, RD
Coxsackievirus B3 [9] = test: Antiviral activity against CVB3 infected in HEp-2 cells assessed as inhibition of virus-induced cell death at 25 uM incubated for 48 hrs by MTT assay relative to control; assay type: functional; settings: Enterovirus B
Coxsackievirus B3 [10] = test: Antiviral activity against CVB3 infected in HEp-2 cells assessed as inhibition of virus-induced cell death at 50 uM incubated for 48 hrs by MTT assay relative to control; assay type: functional; settings: Enterovirus B
Enterovirus [11] = test: Antiviral activity against EV71 infected in human RD cells assessed as inhibition of virus-induced cell death at 25 uM incubated for 48 hrs by MTT assay relative to control; assay type: functional; settings: Enterovirus, 71, RD
Enterovirus [12] = test: Antiviral activity against EV71 infected in human RD cells assessed as inhibition of virus-induced cell death at 50 uM incubated for 48 hrs by MTT assay relative to control; assay type: functional; settings: Enterovirus, 71, RD
Enterovirus [13] = test: Antiviral activity against EV71 infected in human RD cells assessed as protection from virus-induced cytopathogenicity by measuring reduction in progeny virus titer incubated for 48 hrs by MTT assay; assay type: functional, 71
Coxsackievirus B3 [14] = test: Antiviral activity against CVB3 infected in HEp-2 cells assessed as protection from virus-induced cytopathogenicity by measuring reduction in progeny virus titer incubated for 48 hrs by MTT assay; assay type: functional
Coxsackievirus B3 [15] = test: Antiviral activity against CVB3 infected in HEp-2 cells assessed as inhibition of virus-induced cell death at 200 uM incubated for 48 hrs by MTT assay; assay type: functional, organism-based
Enterovirus [16] = test: Antiviral activity against EV71 infected in human RD cells assessed as inhibition of virus-induced cell death at 200 uM incubated for 48 hrs by MTT assay; assay type: functional, organism-based; settings: 71
Coxsackievirus B3 [17] = test: Antiviral activity against CVB3 infected in HEp-2 cells assessed as inhibition of virus-induced cell death at 25 to 100 uM incubated for 48 hrs by MTT assay; assay type: functional, organism-based; settings: dose 25-100 µM
Enterovirus [18] = test: Antiviral activity against EV71 infected in human RD cells assessed as inhibition of virus-induced cell death at 25 to 100 uM incubated for 48 hrs by MTT assay; assay type: functional, organism-based; settings: 71, dose 25-100 µM
RD = test: Inhibition of morphological changes in human RD cells infected with EV71 assessed as reduction in cytopathic effect at 50 to 100 uM measured after 48 hrs by Reed-Muench method; assay type: functional, cell-based; settings: Enterovirus, 71, dose 50-100 µM
HEp-2 = test: Inhibition of morphological changes in HEp-2 cells infected with CVB3 assessed as reduction in cytopathic effect at 50 to 100 uM measured after 48 hrs by Reed-Muench method; assay type: functional, cell-based; settings: Coxsackievirus B3, dose 50-100 µM
Enterovirus [19] = test: Antiviral activity against EV71 infected in human RD cells assessed as viral infection in cell at 50 uM incubated for 46.5 hrs by fluorescence microscopy (reference value: 80.67 %); assay type: functional, 71
Enterovirus [20] = test: Antiviral activity against EV71 infected in human RD cells assessed as viral infection in cell at 100 uM incubated for 46.5 hrs by fluorescence microscopy (reference value: 80.67 %); assay type: functional, 71
Enterovirus [21] = test: Antiviral activity against EV71 infected in human RD cells assessed as log reduction in viral replication at 100 uM incubated for 4 to 32 hrs by […] method; assay type: functional, 71; settings: time 4-32 hrs
Enterovirus [22] = test: Antiviral activity against EV71 infected in human RD cells assessed as inhibition of viral RNA synthesis at 100 uM incubated for 32 hrs by qRT-PCR analysis; assay type: functional, organism-based; settings: 71
Enterovirus [23] = test: Antiviral activity against EV71 infected in human RD cells assessed as reduction in viral protein translation at 100 uM incubated for 32 hrs by immunofluorescence analysis; assay type: functional, organism-based; settings: 71
Enterovirus [24] = test: Virucidal activity against EV71 infected in human RD cells at 100 uM pretreated compound with virus followed by inoculation of mixture into host cells measured after 2 days by Reed-Muench method; assay type: functional, organism-based; settings: 71, time 2.0 day
Enterovirus [25] = test: Antiviral activity against EV71 infected in human RD cells assessed as cell viability at 100 uM pre-infected with virus followed by compound treatment measured after 48 hrs post-infection by MTT assay relative to control; assay type: functional, 71
Enterovirus [26] = test: Antiviral activity against EV71 infected in human RD cells assessed as increase in cell viability at 3.125 to 100 uM preincubated with compound followed by viral infection measured after 48 hrs by MTT assay; assay type: functional, organism-based; settings: 71, dose 3.125-100 µM
Enterovirus [27] = test: Antiviral activity against EV71 infected in human RD cells assessed as increase in cell viability at 3.125 to 100 uM incubated with compound and virus measured after 48 hrs by MTT assay; assay type: functional, organism-based; settings: 71, dose 3.125-100 µM
Enterovirus [28] = test: Inhibition of EGFP-fused EV71 2Apro transfected in host cells co-expressing FLuc assessed as reduction in firefly luciferase activity incubated for 24 to 36 hrs by chemiluminescence analysis; assay type: cell-based; settings: 71, time 24-36 hrs
Enterovirus [29] = test: Inhibition of EV71 3Dpol assessed as decrease in RNA chain extension by polyacrylamide gel electrophoresis; settings: 71

| Compound | EC50 (Enterovirus [1]) | CC50 at 48 h [2] | selectivity ratio [3] | EC50 (Coxsackievirus B3 [4]) | CC50 at 48 h [5] | selectivity ratio [6] | inhibition at 100 µM (Coxsackievirus B3 [7]) | inhibition at 100 µM (Enterovirus [8]) | inhibition at 25 µM (Coxsackievirus B3 [9]) | inhibition at 50 µM (Coxsackievirus B3 [10]) | inhibition at 25 µM (Enterovirus [11]) | inhibition at 50 µM (Enterovirus [12]) | log(activity) (Enterovirus [13]) | log(activity) (Coxsackievirus B3 [14]) | inhibition (Coxsackievirus B3 [15]) | inhibition (Enterovirus [16]) | antiviral activity call (active/inactive) (Coxsackievirus B3 [17]) | inhibition (Enterovirus [18]) | further results |
| --- | --- | --- | --- | --- | --- | --- | --- | --- | --- | --- | --- | --- | --- | --- | --- | --- | --- | --- | --- |
| NC(=O)c1ncn([C@@H]2O[C@H](CO)[C@@H](O)[C@H]2O)n1 [RIBAVIRIN] | 40.4 µM | 267 µM | 6.6 | 24.7 µM | 204 µM | 8.2 | 71% | 69.7% | 47.3% | 60.7% | 53.8% | 61.1% | 2.3 | 3.07 |  |  |  |  | Imax (Coxsackievirus B3 [7]): 71%; Imax (Enterovirus [8]): 62.33% |
| O=C1NC2(C(=O)O)CCC(=O)N2c2ccccc21 (configuration not stated) |  | 323 µM |  | 143 µM | 296 µM | 2.1 |  |  |  |  |  |  |  |  | Active; Compared To Ribavirin The Antiviral Effect Is Comparable Or Slightly Inferior | inactive |  |  |  |
| O=C1NC2(C(=O)O)CCC(=O)N2c2ccc(Cl)cc21 (configuration not stated) |  | 317 µM |  | 142 µM | 245 µM | 1.7 |  |  |  |  |  |  |  |  | Active; Compared To Ribavirin The Antiviral Effect Is Comparable Or Slightly Inferior | inactive |  |  |  |
| CN1C(=O)c2ccccc2N2C(=O)CCC12C(=O)NCCc1c[nH]c2ccccc12 (configuration not stated) | 14.8 µM | 265 µM | 17.9 | 82 µM | 217 µM | 2.6 | 54.4% | 62.3% | 24.2% | 40.8% | 33% | 56.7% | ~2.73 | ~4.03 |  |  | Active | Active | inhibition (RD): Active; Compound Successfully Protected Host Cells From Pathological Changes Or Apoptosis; inhibition (HEp-2): Active; Compound Successfully Protected Host Cells From Pathological Changes Or Apoptosis; Activity (Enterovirus [19]): 22.66%; Activity (Enterovirus [20]): 5.34%; log(activity) (Enterovirus [21]): 3.25; inhibition (Enterovirus [22]): Active; Activity (Enterovirus [23]): Active; Activity (Enterovirus [24]): inactive; Activity (Enterovirus [25]): >80%; Activity (Enterovirus [26]): inactive; Activity (Enterovirus [27]): inactive; inhibition (Enterovirus [28]): Active; inhibition (Enterovirus [29]): inactive |
| CN1C(=O)c2ccccc2N2C(=O)CCC12C(=O)O (configuration not stated) |  | 327 µM |  | 152 µM | 276 µM | 1.8 |  |  |  |  |  |  |  |  | Active; Compared To Ribavirin The Antiviral Effect Is Comparable Or Slightly Inferior | inactive |  |  |  |
| O=C1NC2(C(=O)NCCc3c[nH]c4ccccc34)CCC(=O)N2c2ccccc21 (configuration not stated) | 18.6 µM | 208 µM | 11.2 | 65.8 µM | 185 µM | 2.8 | 62.1% | 67% | 28.9% | 44.4% | 64.1% | 73.1% |  |  |  |  | Active | Active |  |
